Experimental data published in PubChem BioAssay (NCI).
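Test compounds were applied to cells in 96-well plates for 48 hours at 5 doses. TGI marks complete inhibition of growth.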

Experiments:
Assay in all cases: inhibition of tumour cell growth, NCI panel, 48 h
[1] = tested on: MDA-N
[2] = tested on: SK-MEL-5 melanoma
[3] = tested on: NCI-H522 lung
[4] = tested on: 786-0 renal
[5] = tested on: SK-MEL-28 melanoma
[6] = tested on: PC-3 prostate
[7] = tested on: T-47D breast
[8] = tested on: MOLT-4 leukemia
[9] = tested on: KM12 colon
[10] = tested on: MALME-3M melanoma
[11] = tested on: TK-10 renal
[12] = tested on: M14 melanoma
[13] = tested on: RXF 393 renal
[14] = tested on: NCI-H460 lung
[15] = tested on: CAKI-1 renal
[16] = tested on: MDA-MB-231 breast
[17] = tested on: A549 NSCLC
[18] = tested on: SF-268 CNS
[19] = tested on: OVCAR-3 ovarian
[20] = tested on: SK-MEL-2 melanoma
[21] = tested on: UO-31 renal
[22] = tested on: NCI-H226 lung
[23] = tested on: NCI/ADR-RES ovarian
[24] = tested on: UACC-257 melanoma
[25] = tested on: HCT-116 colon
[26] = tested on: SN12C renal
[27] = tested on: MCF7 breast
[28] = tested on: SW-620 colon
[29] = tested on: SR leukemia
[30] = tested on: HOP-62 NSCLC
[31] = tested on: SF-539 CNS
[32] = tested on: HOP-92 NSCLC
[33] = tested on: NCI-H23 lung
[34] = tested on: BT-549 breast
[35] = tested on: SNB-19 CNS
[36] = tested on: HCC-2998 colon
[37] = tested on: SK-OV-3 ovarian
[38] = tested on: IGROV1 ovarian
[39] = tested on: ACHN renal
[40] = tested on: UACC-62 melanoma
[41] = tested on: RPMI-8226 leukemia
[42] = tested on: OVCAR-4 ovarian
[43] = tested on: A498 renal
[44] = tested on: OVCAR-8 ovarian
[45] = tested on: CCRF-CEM leukemia
[46] = tested on: MDA-MB-435
[47] = tested on: LOX IMVI melanoma
[48] = tested on: OVCAR-5 ovarian
[49] = tested on: HL-60(TB) leukemia
[50] = tested on: SF-295 CNS
[51] = tested on: DU-145 prostate
[52] = tested on: HCT-15 colon
[53] = tested on: HT29 colon
[54] = tested on: COLO 205 colon
[55] = tested on: EKVX NSCLC
[56] = tested on: U251 CNS
[57] = tested on: SNB-75 CNS
[58] = tested on: K-562 leukemia
[59] = tested on: HS 578T breast

Structure (SMILES): CC1(c2ccc(Cl)cc2)NC(=NCCO)c2ccccc21 (stereo not drawn)
- TGI [1]: 26.9 µM
- TGI [2]: 31 µM
- TGI [3]: > 100 µM
- TGI [4]: 30.4 µM
- TGI [5]: 30 µM
- TGI [6]: > 100 µM
- TGI [7]: > 48 µM
- TGI [8]: 37.8 µM
- TGI [9]: > 57.3 µM
- TGI [10]: 35 µM
- TGI [11]: > 100 µM
- TGI [12]: 25.5 µM
- TGI [13]: 57.9 µM
- TGI [14]: > 84.5 µM
- TGI [15]: > 100 µM
- TGI [16]: > 100 µM
- TGI [17]: > 100 µM
- TGI [18]: > 100 µM
- TGI [19]: > 100 µM
- TGI [20]: 37.7 µM
- TGI [21]: > 100 µM
- TGI [22]: > 100 µM
- TGI [23]: > 100 µM
- TGI [24]: 33.5 µM
- TGI [25]: > 100 µM
- TGI [26]: > 100 µM
- TGI [27]: 53.1 µM
- TGI [28]: > 100 µM
- TGI [29]: 46 µM
- TGI [30]: > 100 µM
- TGI [31]: 27.3 µM
- TGI [32]: 77.9 µM
- TGI [33]: > 94.5 µM
- TGI [34]: 99.7 µM
- TGI [35]: > 100 µM
- TGI [36]: 24.8 µM
- TGI [37]: > 100 µM
- TGI [38]: > 100 µM
- TGI [39]: > 100 µM
- TGI [40]: 32.1 µM
- TGI [41]: 19.5 µM
- TGI [42]: > 100 µM
- TGI [43]: 52.6 µM
- TGI [44]: > 100 µM
- TGI [45]: 24.2 µM
- TGI [46]: 32.6 µM
- TGI [47]: 32.8 µM
- TGI [48]: > 100 µM
- TGI [49]: > 35.5 µM
- TGI [50]: > 81.1 µM
- TGI [51]: > 70.8 µM
- TGI [52]: > 100 µM
- TGI [53]: > 62.8 µM
- TGI [54]: 28.8 µM
- TGI [55]: > 100 µM
- TGI [56]: > 100 µM
- TGI [57]: > 85.1 µM
- TGI [58]: 33.4 µM
- TGI [59]: > 95.1 µM

Structure (SMILES): COc1cc2c(cc1OCCCC(=O)Nc1cc(C(=O)Nc3cc(C(=O)Nc4cc(C(=O)NCCCN(C)C)n(C)n4)n(C)c3)n(C)c1)N=CC1CCCN1C2=O (stereo not drawn)
- TGI [1]: 41.4 µM
- TGI [2]: 42.6 µM
- TGI [3]: 4.77 µM
- TGI [4]: > 100 µM
- TGI [5]: 33.9 µM
- TGI [6]: 48.9 µM
- TGI [7]: > 100 µM
- TGI [8]: 32.4 µM
- TGI [9]: 64.1 µM
- TGI [10]: 36.6 µM
- TGI [11]: 39.4 µM
- TGI [12]: 72.2 µM
- TGI [13]: 42.3 µM
- TGI [14]: > 100 µM
- TGI [15]: 78.1 µM
- TGI [16]: > 100 µM
- TGI [17]: > 100 µM
- TGI [18]: 63.1 µM
- TGI [19]: > 100 µM
- TGI [20]: 49.9 µM
- TGI [21]: 53 µM
- TGI [22]: 51.3 µM
- TGI [23]: > 100 µM
- TGI [24]: 44 µM
- TGI [25]: > 100 µM
- TGI [26]: 51.3 µM
- TGI [27]: 58.7 µM
- TGI [28]: 48.6 µM
- TGI [29]: 25.4 µM
- TGI [30]: > 100 µM
- TGI [31]: 48.5 µM
- TGI [32]: 51.1 µM
- TGI [33]: 78.5 µM
- TGI [34]: 44.7 µM
- TGI [35]: 49.7 µM
- TGI [36]: 76.5 µM
- TGI [37]: > 100 µM
- TGI [38]: 49.1 µM
- TGI [39]: 40 µM
- TGI [40]: 39.9 µM
- TGI [41]: 82.8 µM
- TGI [42]: 38.6 µM
- TGI [43]: 57.7 µM
- TGI [44]: > 100 µM
- TGI [45]: > 100 µM
- TGI [46]: 64.5 µM
- TGI [47]: 55.5 µM
- TGI [48]: > 100 µM
- TGI [49]: 16.3 µM
- TGI [50]: > 100 µM
- TGI [51]: > 100 µM
- TGI [52]: > 100 µM
- TGI [53]: 44.5 µM
- TGI [54]: > 100 µM
- TGI [55]: > 100 µM
- TGI [56]: 59.8 µM
- TGI [57]: 44.7 µM
- TGI [58]: 39.8 µM
- TGI [59]: 48 µM
